For seven compounds, GI50 and TGI results are on record in PubChem BioAssay (NCI).

Some test systems named below: A498 renal; ACHN renal; COLO 205 colon; DU-145 prostate; HT29 colon; IGROV1 ovarian; M14 melanoma; OVCAR-3 ovarian; OVCAR-5 ovarian; SN12C renal.
Holding throughout (assay): NCI anticancer screen, dose series, 48 h

Molecules are shown by their SMILES. Values joined by “and” are separate entries in the source; they are usually repeats but may differ in a detail not shown here. Identical values can stand only once.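 Method: 48-hour compound exposure of cells in 96-well plates, five concentrations, linear interpolation of endpoints. GI50 is the concentration that inhibits growth by half. TGI denotes the concentration required for complete inhibition of growth.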

As for `CC1SC(c2ccc(Cl)cc2Cl)N(NC(=O)C(O)c2ccccc2)C1=O` (stereo not given), the GI50 in the assay on A498 renal is above 100 µM; in the assay on ACHN renal, 48.4 µM; with COLO 205 colon it was above 100 µM; with DU-145 prostate it was above 100 µM; in the assay on HT29 colon it was 41.9 µM; with IGROV1 ovarian it was 22.7 µM. The GI50 with M14 melanoma is 42.9 µM; in the assay on OVCAR-3 ovarian, 28.7 µM; in the assay on OVCAR-5 ovarian, above 100 µM; with SN12C renal it was 85.4 µM. Also, the TGI with A498 renal is above 100 µM; with ACHN renal, above 100 µM; in the assay on COLO 205 colon, above 100 µM; in the assay with DU-145 prostate, above 100 µM; in the assay on HT29 colon, above 100 µM; in the assay on IGROV1 ovarian it was 76.9 µM. Further, the TGI in the assay with M14 melanoma, in the assay on OVCAR-3 ovarian, in the assay with OVCAR-5 ovarian and in the assay with SN12C renal was above 100 µM throughout.
`C[N+](C)=c1ccc2nc3c(cc(NCCCNc4cc5oc6cc(=[N+](C)C)ccc-6nc5c5ccccc45)c4ccccc43)oc-2c1`: the GI50 was 19.1 µM with A498 renal; 2.17 µM with ACHN renal; 1.02 µM in the assay with COLO 205 colon; 1.53 µM in the assay on DU-145 prostate; 1.81 µM in the assay with HT29 colon; 1.36 µM with IGROV1 ovarian. Besides, the GI50 in the assay with M14 melanoma was 1.63 µM; with OVCAR-3 ovarian, 0.341 µM; in the assay on OVCAR-5 ovarian, 2.85 µM; in the assay on SN12C renal it was 2.33 µM. Moreover, the TGI with A498 renal was 46.9 µM; in the assay with ACHN renal it was 11.3 µM; in the assay with COLO 205 colon, 2.45 µM; with DU-145 prostate, 2.91 µM; in the assay on HT29 colon, 6.29 µM; with IGROV1 ovarian, 8.67 µM. In addition, the TGI with M14 melanoma was 3.18 µM; with OVCAR-3 ovarian, 2.33 µM; in the assay with OVCAR-5 ovarian, 10.9 µM; with SN12C renal it was 7.39 µM.
Consider `O=C(/C=C/C12c3ccccc3C(c3ccccc31)C1C(=O)NC(=O)C12)c1ccccc1` (stereo not given), for which the GI50 with A498 renal was 1.42 µM; in the assay on ACHN renal, 1.75 µM; in the assay on COLO 205 colon it was 2.05 µM; in the assay with DU-145 prostate it was 1.64 µM; in the assay with HT29 colon it was 3.25 µM; with IGROV1 ovarian it was 2.03 µM. Moreover, the GI50 is 1.78 µM in the assay with M14 melanoma, 1.65 µM with OVCAR-3 ovarian, 2.01 µM in the assay on OVCAR-5 ovarian and 2.29 µM with SN12C renal. The TGI in the assay with A498 renal was determined as 2.82 µM; in the assay with ACHN renal, 3.59 µM; with COLO 205 colon, 4.03 µM; in the assay on DU-145 prostate it was 3.51 µM; in the assay with HT29 colon, 11.9 µM; in the assay with IGROV1 ovarian, 4.52 µM. Besides, the TGI in the assay on M14 melanoma stood at 3.68 µM; with OVCAR-3 ovarian it was 3.37 µM; with OVCAR-5 ovarian, 4.83 µM; with SN12C renal, 6.91 µM.
With `C[C@@H]1CC[C@@]2(NC1)O[C@H]1C[C@H]3[C@@H]4CC[C@H]5C[C@@H](O)CC[C@]5(C)[C@H]4CC[C@]3(C)[C@H]1[C@@H]2C`, the TGI with A498 renal is above 100 µM; with ACHN renal, 85.5 µM; in the assay with COLO 205 colon, above 100 µM; with DU-145 prostate, above 100 µM; with HT29 colon, above 100 µM; in the assay with IGROV1 ovarian, above 100 µM. Besides, the TGI in the assay with M14 melanoma, in the assay with OVCAR-3 ovarian, in the assay on OVCAR-5 ovarian and in the assay on SN12C renal was above 100 µM each time.
Regarding `CN(C)CCCNc1nc2ccccc2c2[nH]c3ccccc3c12`, the GI50 was 6.42 µM with A498 renal; 0.703 µM in the assay on ACHN renal; 0.795 µM in the assay with COLO 205 colon; 0.72 µM in the assay with DU-145 prostate; 0.163 µM in the assay with HT29 colon; 1.39 µM in the assay with IGROV1 ovarian. Further, the GI50 in the assay with M14 melanoma is 1.11 µM; with OVCAR-3 ovarian it was 0.66 µM; in the assay with OVCAR-5 ovarian, 1.28 µM; in the assay with SN12C renal, 0.639 µM. The TGI with A498 renal came out at 13.4 µM; in the assay on ACHN renal, 2.24 µM; in the assay on COLO 205 colon, 10.1 µM; with DU-145 prostate it was 4.36 µM; in the assay on HT29 colon it was 33 µM; with IGROV1 ovarian, 18.4 µM. Also, the TGI with M14 melanoma came to 2.46 µM; with OVCAR-3 ovarian it was 2.23 µM; in the assay on OVCAR-5 ovarian, 9.36 µM; in the assay on SN12C renal, 2.26 µM.
For the compound `COC(=O)[C@H](Cc1cn(C)cn1)NC(=O)[C@H](Cc1ccccc1)NC(=O)Nc1cc(C(F)(F)F)cc(C(F)(F)F)c1`, the GI50 is 15.8 µM in the assay on A498 renal; 17.2 µM with ACHN renal; 15.3 µM in the assay on COLO 205 colon; 13.8 µM in the assay with DU-145 prostate; 4.97 µM and 14.9 µM in the assay with HT29 colon; 18.5 µM in the assay on IGROV1 ovarian. In addition, the GI50 was 13.5 µM in the assay on M14 melanoma; 2.25 µM and 3.46 µM in the assay on OVCAR-3 ovarian; 16.8 µM in the assay with OVCAR-5 ovarian; 11.7 µM in the assay on SN12C renal. Besides, the TGI in the assay on A498 renal amounted to 30.1 µM; in the assay on ACHN renal, 33.4 µM; in the assay with COLO 205 colon, 31.6 µM; in the assay on DU-145 prostate, 27 µM; with HT29 colon it was 29.8 µM; in the assay with IGROV1 ovarian, 37.2 µM. The TGI in the assay on M14 melanoma is 28.5 µM; with OVCAR-3 ovarian, 5.42 µM and 11.1 µM; with OVCAR-5 ovarian, 32.5 µM; in the assay with SN12C renal it was 24.6 µM.
As for `O=C([O-])CC(=O)[O-].[NH-][C@@H]1CCCC[C@H]1[NH-].[Pt+4]`, the GI50 in the assay on A498 renal was 20.7 µM; in the assay with ACHN renal it was above 35.9 µM; in the assay with COLO 205 colon, 54 µM; with DU-145 prostate, 93 µM; in the assay with HT29 colon it was 6.13 µM; in the assay with IGROV1 ovarian, 33.5 µM. Further, the GI50 with M14 melanoma was 16.7 µM; in the assay with OVCAR-3 ovarian, 24.9 µM; in the assay with OVCAR-5 ovarian, above 63.9 µM; with SN12C renal, 15 µM. Further, the TGI in the assay with A498 renal is above 81.5 µM; in the assay with ACHN renal it was above 100 µM; in the assay on COLO 205 colon it was above 100 µM; in the assay on DU-145 prostate it was above 100 µM; in the assay with HT29 colon, above 100 µM; in the assay on IGROV1 ovarian it was above 100 µM. For the same compound, the TGI in the assay with M14 melanoma, in the assay on OVCAR-3 ovarian, in the assay with OVCAR-5 ovarian and in the assay with SN12C renal was above 100 µM in each case.
